Like-named read-outs stand apart in the source and are kept apart here. Peptide text beside a SMILES is read from it.
Tests used:
[1] = system: Staphylococcus aureus (S. aureus) ATCC6538; assay type: cell-based
Description: (§1) A broth microdilution assay was performed to determine the minimum inhibitory concentration (MIC) for the oligoarginine peptides. Escherichia coli (E. coli) ATCC25922 and Staphylococcus aureus (S. aureus) ATCC6538 were used as model organisms for Gram-negative and Gram-positive bacteria, respectively. Both strains were cultured in LB broth for ∼18 h overnight at 37 °C and shaking set to 180 RPM. The culture was diluted to obtain a 0.01 optical density (OD) bacterial suspension in LB. Using a 96-well plate, oligoarginine concentrations ranging from 1 mM to 0.001 mM were obtained, and each peptide concentration was tested against both bacterial strains. The bacteria were incubated overnight at 37 °C for 18 h, and the lowest concentration of the treatment with no visible bacterial growth was recorded as the MIC of the respective oligoarginine treatment.

[2] = system: Escherichia coli (E. coli) ATCC25922; assay type: cell-based
Description: as §1

[3] = LB broth, 1 mM to 0.001 mM, 18 h at 37 °C, no visible growth, average ± SEM, n = 9

SMILES	S. aureus MIC ([1]; ATCC6538, 18 h) [µM]	E. coli MIC ([2]; ATCC25922, 18 h) [µM]	S. aureus MIC [1, 3] [µM]	E. coli MIC [2, 3] [µM]
N=C(N)NCCC[C@H](NC(=O)[C@H](CCCNC(=N)N)NC(=O)[C@@H](N)CCCNC(=N)N)C(=O)O [R3] (H-Arg-Arg-Arg-OH)	> 1000	> 1000		
N=C(N)NCCC[C@H](NC(=O)[C@H](CCCNC(=N)N)NC(=O)[C@H](CCCNC(=N)N)NC(=O)[C@H](CCCNC(=N)N)NC(=O)[C@H](CCCNC(=N)N)NC(=O)[C@@H](N)CCCNC(=N)N)C(=O)O [R6]	> 1000	> 1000		
N=C(N)NCCC[C@H](NC(=O)[C@H](CCCNC(=N)N)NC(=O)[C@H](CCCNC(=N)N)NC(=O)[C@H](CCCNC(=N)N)NC(=O)[C@H](CCCNC(=N)N)NC(=O)[C@H](CCCNC(=N)N)NC(=O)[C@H](CCCNC(=N)N)NC(=O)[C@H](CCCNC(=N)N)NC(=O)[C@@H](N)CCCNC(=N)N)C(=O)O [R9]	1000	> 1000		
N=C(N)NCCC[C@H](NC(=O)[C@H](CCCNC(=N)N)NC(=O)[C@H](CCCNC(=N)N)NC(=O)[C@H](CCCNC(=N)N)NC(=O)[C@H](CCCNC(=N)N)NC(=O)[C@H](CCCNC(=N)N)NC(=O)[C@H](CCCNC(=N)N)NC(=O)[C@H](CCCNC(=N)N)NC(=O)[C@H](CCCNC(=N)N)NC(=O)[C@H](CCCNC(=N)N)NC(=O)[C@H](CCCNC(=N)N)NC(=O)[C@@H](N)CCCNC(=N)N)C(=O)O [R12]			610 ± 220	940 ± 160

Reference: paper PMC11336422, “Oligoarginine peptide structure and its effect on cell penetration in ocular drug delivery” (Heliyon, 2024)
